# Earlier results, collected in patent publication US20090246276A1, “Pharmaceutical Compositions” (priority 2008, published 2009).
# Read-outs that look alike come from different tables or passages of the source.
# Test system: patients diagnosed with MDD
# Conditions: citalopram non-responders, cited from earlier work
structure (smiles),measurement,setting,value
"CC(NC(C)(C)C)C(=O)c1cccc(Cl)c1 (centres unmarked) [Bupropion, bupropion]",remission rate,bupropion added on to the existing citalopram treatment,30%
same,remission rate,switched to bupropion,20%
